The text below walks through data of patent publication US4363922A, “Esters of antibiotic nodusmicin” (priority 1981, dated 1982).

The test system of series [1] is S.lutea UC-130. Kind of series: Dipped disc agar diffusion assay, S. lutea. The following applies: for zone of inhibition at 1000 µg/mL: Micrococcus luteus, UC130, 16 h. In general terms: In agar diffusion tests the substance spreads into inoculated agar from a disc or well.
The subject of series [2] is S.pyrogenes UC-152. Kind of series: Minimum Inhibitory Concentration, microplate broth-dilution, S. pyrogenes UC-152. The settings on record: for MIC S.pyrogenes UC-152: BHI broth.
In series [3] the test system is S.aureus UC-570. Kind of series: Minimum Inhibitory Concentration, microplate broth-dilution, S. aureus UC-570. The following applies: for MIC: Staphylococcus aureus.
In series [4] the test system is S.aureus UC 80. The experiment in a line: Dipped disc agar diffusion assay, S. aureus. The settings on record: for zone of inhibition at 1000 µg/mL: Staphylococcus aureus, UC80, 16 h.
The subject of series [5] is S.aureus UC-746. Kind of series: Minimum Inhibitory Concentration, microplate broth-dilution, S. aureus UC-746. The settings on record: for MIC: Staphylococcus aureus.
The test system of series [6] is S.aureus UC-76. The experiment in a line: Minimum Inhibitory Concentration, microplate broth-dilution, S. aureus UC-76. The settings on record: for MIC S.aureus UC-76: BHI broth; for MIC: Staphylococcus aureus.
Series [7] in a line: Solubility noted in the MIC determination. The settings on record: BHI broth.
[8] abbreviates: read-out: Agar Diffusion 1 mg./ml. S.lutea UC-130 (inhibition zone).
[9] abbreviates: read-out: zone of inhibition, S. lutea.
[10] abbreviates: read-out: MIC S.pyrogenes UC-152, BHI broth.
Setting [11] is: read-out: Agar Diffusion 1 mg./ml. S.aureus UC 80 (inhibition zone), 1 mg./ml., 12.7 mm paper disc, 16 hours.
[12] abbreviates: UC76, read-out: MIC S.aureus UC-76, BHI broth, sensitive strain.
Setting [13] is: read-out: MIC S.pyrogenes UC-152.
Where [14] appears, read: UC570, read-out: MIC S.aureus UC-570.
Setting [15] is: UC746, read-out: MIC S.aureus UC-746.
[16] abbreviates: UC76, read-out: MIC S.aureus UC-76.

≈ marks a conversion by molar mass, not a printed value. Like-named read-outs stand apart in the source and are kept apart here.

9-O--3-Furoyl- [U-61,461]: in series [1] (1 mg./ml., 12.7 mm paper disc, 16 hours), the “Agar Diffusion 1 mg./ml. S.lutea UC-130 (inhibition zone)” value came to 41. Moreover, the “MIC S.pyrogenes UC-152” value in series [2] worked out at 2.50 µg/mL. Moreover, in series [3] (BHI broth, sensitive strain), the “MIC S.aureus UC-570” value is 0.25 µg/mL. In addition, the “Agar Diffusion 1 mg./ml. S.aureus UC 80 (inhibition zone)” value in series [4] (12.7 mm paper disc, 16 hours) was determined as 35. Also, the “MIC S.aureus UC-746” value in series [5] (BHI broth, strain resistant to tetracycline) was determined as 0.50 µg/mL. Also, the “MIC S.aureus UC-76” value in series [6] (sensitive strain) was determined as 0.50 µg/mL.

With `COC1CC2C=CC3C4OC2(C(C)=CC(C)C(C(C)O)OC1=O)C3C(O)C(C)C4OC(=O)c1ccccc1` (stereo not shown) [9-O--benzoyl-, 9-O-benzoyl-nodusmicin], the zone of inhibition at 1000 µg/mL in series [1] (setting [8]) and in series [1] (setting [9]) was 30 mm in each case. For the same compound, the “insoluble” value in series [7] is “insoluble”.

For `COC1CC2C=CC3C4OC2(C(C)=CC(C)C(C(C)OC(=O)c2ccccc2)OC1=O)C3C(O)C(C)C4O` (stereo not shown) [18-O--benzoyl-, 18-O-benzoyl-nodusmicin], the “insoluble” value in series [7] is reported as “insoluble”.

As usually defined, the MIC is the lowest concentration that inhibits growth of the organism. `COC1CC2C=CC3C4OC2(C(C)=CC(C)C(C(C)O)OC1=O)C3C(O)C(C)C4OC(=O)c1ccc[nH]1` (stereo not shown) [U-59,760, 9-O-pyrrole-2-carbonyl ester of nodusmicin, reference compound]: the zone of inhibition at 1000 µg/mL in series [1] (setting [8]) worked out at 44 mm; in series [4] (setting [11]), 37 mm. Besides, the “MIC S.pyrogenes UC-152” value in series [2] turned out to be 62.5 µg/mL (≈ 121 µM). The MIC is over 125 µg/mL in series [2] (setting [10]) and 0.0625 µg/mL (≈ 0.121 µM) in series [6] (setting [12]). Besides, the “Agar Diffusion 1 mg./ml. S.aureus UC 80 (inhibition zone)” value in series [4] (12.7 mm paper disc, 16 hours) was found to be 38. Also, the “MIC S.aureus UC-76” value in series [6] (sensitive strain) is 0.125 µg/mL (≈ 0.242 µM).

Turning to `COC1CC2C=CC3C4OC2(C(C)=CC(C)C(C(C)O)OC1=O)C3C(O)C(C)C4OC(=O)c1ccco1` (stereo not shown) [U-60,898, 9-O--Furoyl-], the results for the zone of inhibition at 1000 µg/mL in series [1] (setting [8]) and in series [4] (read-out: Agar Diffusion 1 mg./ml. S.aureus UC 80 (inhibition zone)) were 40 mm and 30 mm, respectively. Besides, the MIC in series [2] (setting [13]) was over 250 µg/mL; in series [3] (setting [14]), 7.8 µg/mL (≈ 15.1 µM); in series [5] (setting [15]), 7.8 µg/mL (≈ 15.1 µM); in series [6] (setting [16]) it was 7.8 µg/mL (≈ 15.1 µM).

With `COC1CC2C=CC3C4OC2(C(C)=CC(C)C(C(C)O)OC1=O)C3C(OC(=O)c1ccco1)C(C)C4O` (stereo not shown) [U-60,905, 11-O--Furoyl-], in series [1] (setting [8]), the zone of inhibition at 1000 µg/mL is 17 mm. Further, the MIC in series [2] (setting [13]) is over 500 µg/mL; in series [3] (setting [14]), 500 µg/mL (≈ 968 µM); in series [5] (setting [15]) it was 500 µg/mL (≈ 968 µM); in series [6] (setting [16]), 500 µg/mL (≈ 968 µM).

For `COC1CC2C=CC3C4OC2(C(C)=CC(C)C(C(C)O)OC1=O)C3C(O)C(C)C4OC(=O)c1cccnc1` (stereo not shown) [U-60,906, 9-O--Nicotinoyl-], in series [1] (setting [8]), the zone of inhibition at 1000 µg/mL came to 32 mm. Further, the MIC amounted to 2500 µg/mL (≈ 4740 µM) in series [2] (setting [13]), 250 µg/mL (≈ 474 µM) in series [3] (setting [14]), 250 µg/mL (≈ 474 µM) in series [5] (setting [15]) and 250 µg/mL (≈ 474 µM) in series [6] (setting [16]).

`COC1CC2C=CC3C4OC2(C(C)=CC(C)C(C(C)OC(=O)c2ccc[nH]2)OC1=O)C3C(O)C(C)C4O` (stereo not shown) [U-60,907, 18-O--Pyrrole-2-carbonyl]: the zone of inhibition at 1000 µg/mL in series [1] (setting [8]) is 33 mm; in series [4] (setting [11]), 27 mm. Moreover, the minimum inhibitory concentration (MIC) in series [2] (setting [10]) was over 250 µg/mL; in series [3] (UC570, read-out: MIC S.aureus UC-570, BHI broth, sensitive strain), 3.9 µg/mL (≈ 7.56 µM); in series [5] (UC746, read-out: MIC S.aureus UC-746, BHI broth, strain resistant to tetracycline), 15.6 µg/mL (≈ 30.3 µM); in series [6] (setting [12]), 7.8 µg/mL (≈ 15.1 µM).

Consider `COC1CC2C=CC3C4OC2(C(C)=CC(C)C(C(C)OC(=O)c2ccc[nH]2)OC1=O)C3C(O)C(C)C4OC(=O)c1ccc[nH]1` (stereo not shown) [U-60,908, 9,18-O--Dipyrrole-2-carbonyl-], for which the zone of inhibition at 1000 µg/mL turned out to be 29 mm in series [1] (setting [8]) and 24 mm in series [4] (setting [11]). The “insoluble” value in series [7] is “insoluble”.

In the case of `COC1CC2C=CC3C4OC2(C(C)=CC(C)C(C(C)O)OC1=O)C3C(O)C(C)C4OC(=O)c1ccccn1` (stereo not shown) [U-60,909, 9-O--Picolinoyl-], the zone of inhibition at 1000 µg/mL in series [1] (setting [8]) was 31 mm. The minimal inhibitory concentration (MIC) in series [2] (setting [13]), in series [3] (setting [14]), in series [5] (setting [15]) and in series [6] (setting [16]) was over 250 µg/mL each time.

As to `COC1CC2C=CC3C4OC2(C(C)=CC(C)C(C(C)O)OC1=O)C3C(O)C(C)C4OC(=O)c1ccsc1` (stereo not shown) [U-60,910, 9-O-Thiophene-3-carbonyl-nodusmicin], the zone of inhibition at 1000 µg/mL in series [1] (setting [8]) stood at 40 mm; in series [1] (setting [9]), 40 mm; in series [4] (setting [11]), 35 mm; in series [4] (read-out: zone of inhibition, S. aureus, 1 mg./ml., 0.5 inch disc, agar tray, strain not stated), 35 mm. In addition, the MIC in series [2] (setting [10]) was found to be 125 µg/mL (≈ 235 µM); in series [3] (setting [14]) it was 0.25 µg/mL (≈ 0.469 µM); in series [5] (setting [15]), 0.5 µg/mL (≈ 0.939 µM); in series [6] (setting [16]), 0.5 µg/mL (≈ 0.939 µM).
